From patent publication US20210268075A1, “PHARMACEUTICAL COMPOSITION AND METHOD OF TREATMENT USING SERRATIOPEPTIDASE, MANNOSE OR ITS DERIVATIVE, AND OPTIONALLY ANTINFECTION AGENTS” (priority 2020, published 2021)

Tested on: E. Coli ATCC 8739
Test: In vitro suppression of bacterial growth from a biofilm on a plastic thread (transmittance of medium at 590 nm)
Assay type: cell-based
Conditions: 7 hours with Solution F/P, higher transmittance = less bacterial growth
Description: 1 ml of Stock E. Coli ATCC 8739 (Culture Count 10×10^8 CFU/ml) was diluted to 10 ml with buffered peptone water with NaCl. The 1 ml of resulting culture (10×10^7 CFU/ml) was diluted to 10 ml with buffered peptone water with NaCl to make E. Coli Culture (10×10^6 CFU/ml)
On first day 6 PM, Five (5) sterile test tubes were added with 50 ml of sterile Soybean Casein Digest Medium. These medium were inoculated with 1 ml of E. Coli culture (10×10^6 CFU/ml @ 6 PM. A thin plastic thread (0.1 mm OD) of the same length were suspended from the middle of all 5 test tubes and keep in overnight (17 hours) at 30° C.-35° C. • 2. On second day 11 AM, another Five (5) sterile test tubes were added with 50 ml of sterile Soybean Casein Digest Medium and 500 mg of Glucose. • a. 1 ml of Solution F (D-mannose solution) was added to test tube 1. • b. 1 ml of Solution P (Serrapeptidase solution) was added to test tube 2. • c. 1 ml of Solution F (D-Mannose solution) and 1 ml of Solution P (Serrapeptidase solution) was added to test tube 3.
The thin plastic thread was transferred from old test tube to new test tube on second day 11 AM. All 5 test tubes were kept at 30° C.-35° C. for 7 hours. • 3. On second day 6 PM, another Five (5) sterile test tubes were added with 50 ml of Sterile Soybean Casein Digest Medium. Transfer the thin plastic thread from old test tube to new test tube on second day at 6 PM. […]

Row | Structure (SMILES) | transmittance of test tube medium at 590 nm (Procedure 2: thick plastic thread (0.5 mm OD), then 1 ml Solution A overnight (17 hours) at 30-35° C.) | transmittance of test tube medium at 590 nm (Procedure 1: thin plastic thread (0.1 mm OD), overnight in fresh medium, then 1 ml Solution A^dil for 7 hours at 30-35° C.)
1 | O=C1CN(/N=C/c2ccc([N+](=O)[O-])o2)C(=O)N1 [A (Antibiotic), Nitrofurantoin Anhydrous] | 6.9 | 
2 | O=C1CN(/N=C/c2ccc([N+](=O)[O-])o2)C(=O)N1 [A^dil (Diluted Antibiotic), Nitrofurantoin Anhydrous] |  | 8.4
